One test addresses T1, GST-fused lck SH2 domain (Homo sapiens, UniProt P06239).
T1 construct: GST (Glutathione transferase)-fused lck SH2 domain
Description: Inhibition of in vitro binding of lck SH2 domain to its cognate pYEEI peptide (BIAcore 2000). The following applies: IC50 class for inhibition of GST-lckSH2 binding to immobilized biotinylated […]pYEEIPI peptide; read-out: BOND DEGREE WITH SH2 OF 1ck. As for the experimental part:
The present inventors investigated the inhibition activity of phenyl derivatives on the interaction of GST (Glutathione transferase)-fused lck SH2 domain and a peptide […]pYEEIPI (comprising the sequence PYEEI, a cognate peptide of Lck SH2) by using a real time sensorgram (BIAcore 2000).
At first, the biotinylated peptide was fixed on the surface of BIAcore analysis apparatus and then GST-lckSH2 protein was injected over the surface of the immobilized peptides. The binding of GST-lck SH2 with the peptide is represented as the resonance units (referred as “RU” hereinafter) and 1,000 RU corresponds to a change in surface concentration of 1 ng/mm^2. The binding of GST-lck with the fixed peptide causes the change of refractory index, leading to the increase of RU. In the mean time, when the binding of GST-lck with the fixed peptide is inhibited, RU decreases. Those results are represented in Table 1.

For the next test, the system named is IL-2 promoter. As to the kind of experiment: IL-2 promoter luciferase reporter assay in anti-CD3 activated Jurkat cells. The test is classed as cell-based. Particulars: Homo sapiens, TCR-induced (anti-CD3) IL-2 promoter luciferase, 2 h pre-incubation. As for the experimental part:
In order to confirm whether the compounds of the invention can pass through a cell membrane and inhibit the expression of IL-2 gene leading to T-cell proliferation, the present inventors firstly confirmed T-cell activity by detecting the activity of the luciferase fused on the downstream of IL-2 promoter.
To investigate the activity of IL-2 promoter, Jurkat cells (1×10^6) were transfected with a IL-2 reporter plasmids using Superfect™ (Qiagen Inc.). After 24 hours of transfection, Jurkat cells were pre-incubated with compounds of various concentrations (1 uM-50 uM) for 2 hours and further cultured on 35mm plate pre-coated with 5 ug/ml of anti-CD3 antibody, resulting in T cell activation. The luciferase activity was measured using Berthold luminometer LB953. The IC50 (50% inhibition concentration) of the compounds of the invention on TCR-induced IL-2 promoter activation are shown in Table 2.

For the next test, the system named is skin allograft rejection. As to the kind of experiment: Inhibition of skin allograft rejection (Balb/c tail skin grafted onto C57BL/6 mouse). The format is in vivo. Particulars: 100 mg/kg/day into abdominal cavity from day of transplantation until complete rejection. As for the experimental part: For the experiment, allogeneic Balb/c(H-2d) mouse-tail skin was grafted onto C57BL/6(H-2b) mouse. Generally 7-8 mice were assigned to each group. All the phenyl derivatives were dissolved in 100% ethanol, mixed with olive oil, and adjusted to the final concentration of ethanol therein less than 5%. […] Meanwhile, for the group of untreated mice, an olive oil-ethanol mixture was administered as a control. The grafted skin was monitored daily after the removal of the bandage on days 7-9. Rejection was defined as more than 80% necrosis of the graft epithelium.

Test [1] deals with collagen-induced rheumatoid arthritis. Description: Inhibition of collagen-induced rheumatoid arthritis in DBA1/LacJ mice. The test is classed as in vivo, mouse. Also noted: key: sum of 4 leg scores (0-4 each), max 16. The following applies: 50 mg/kg/day i.p. daily; day 15 after treatment (day 36 after primary immunization); sum of scores of four legs, maximum 16; mean ± standard deviation. As for the experimental part: After 2 weeks, booster immunization was carried out with 50 μg C II/IFA. From the 3rd week after primary immunization, compounds of the present invention were injected daily into peritoneal cavities of 6-8 mice per group for 15-20 days.
The vehicle control groups were injected daily with 100 μl of 5% ethanol-olive oil mixture in total 15-20 times. Widely used anti-rheumatic drug, Methotrexate, was dissolved in PBS and then injected to mice at 1 mg/kg/day every other day in total 8-10 times. Meanwhile, the compounds of the invention were dissolved in ethanol and then mulsified in olive oil, in which the final ethanol concentration was adjusted to 5% and the compounds of this invention was 50 mg/kg/day.
From the 3rd week after primary immunization, the extent of edema and the joint swelling was monitored everyday to determine arthritic index. Arthitic index is the sum of the arthritic scores of all 4 legs and, therefore, maximum arthritis index of 16 can be achieved (e.g., [4 (maximum arthritic score)/leg]×[4 legs/mouse]=16 (maximum arthritis index/mouse)). […] was presented by the mean arthritis index±standard deviation of each mouse group.

The structures appear in SMILES notation.

T1 sequence (P06239 127-224 limits assumed): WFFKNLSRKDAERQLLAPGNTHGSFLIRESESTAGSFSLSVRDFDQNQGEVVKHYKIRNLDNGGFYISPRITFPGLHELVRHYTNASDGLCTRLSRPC

Regarding `CC(C)(C)OC(=O)[C@H](Cc1ccc(O)c(O)c1)NC(=S)/C=C/c1ccc(O)c(O)c1` [Example 27, 3-(3,4-dihydroxy-phenyl)-(S)-2-[3-trans-(3,4-dihydroxy-phenyl)-thioacryloylamino]-propionic acid tert-butyl ester], the IC50 was 25 to 50 µM at GST-fused lck SH2 domain and 20.1 µM in the test on IL-2 promoter. Further, in the test on skin allograft rejection, the “Survival time of skin graft tissue (days ± variance)” value (“Survival time of skin graft tissue” for short) was determined as 12.3 ± 0.6 days. This molecule also returned an Arthritis index in test [1] of 6.6 ± 1.1.
For `COC(=O)[C@H](Cc1ccc(O)c(O)c1)N(C)C(=O)/C=C/c1ccc(O)c(O)c1` [Example 36, 3-(3,4-dihydroxy-phenyl)-(S)-2-{[3-trans-(3,4-dihydroxy-phenyl)-acryloyl]-methyl-amino}-propionic acid methyl ester], in that order: 25 to 50 µM, 15 µM, 12.9 ± 0.9 days and 6.1 ± 1.9.
For `COC(=O)[C@H](Cc1ccc(O)c(O)c1)NC(=O)/C=C/c1ccc(O)c(O)c1` [Example 8, 3-(3,4-dihydroxy-phenyl)-(S)-2-[3-trans-(3,4-dihydroxy-phenyl)-acryloylamino]-propionic acid methyl ester], in that order: 10 to 25 µM, 10.9 µM, 15.2 ± 1.1 days and 6.0 ± 1.1.
Taken in the same sequence, the figures for `CC(C)NC(=O)[C@@H](Cc1ccc(O)c(O)c1)OC(=O)/C=C/c1ccc(O)c(O)c1` [Example 58, (R)-3-(3,4-Dihydroxy-phenyl)-acrylic acid 2-(3,4-dihydroxy-phenyl)-1-isopropylcarbamoyl ethyl ester] were 25 to 50 µM, 5.4 µM, 12.5 ± 1.3 days and 4.8 ± 0.7.
Regarding `O=C(/C=C/c1ccc(O)c(O)c1)N[C@H](Cc1ccc(O)c(O)c1)C(=O)O` [Example 2, 3-(3,4-dihydroxy-phenyl)-(R)-2-[3-trans-(3,4-dihydroxy-phenyl)-acryloylamino]-propionic acid], the values for the IC50 at GST-fused lck SH2 domain and in the test on IL-2 promoter were below 10 µM and 15 µM, respectively. For the same molecule, in the test with skin allograft rejection, the “Survival time of skin graft tissue” value came to 14.8 ± 0.5 days. In test [1], this molecule displayed an Arthritis index of 7.2 ± 1.5.
Taken in the same sequence, the figures for `CCCOC(=O)[C@H](Cc1ccc(O)c(O)c1)N(C)C(=O)/C=C/c1ccc(O)c(O)c1` [Example 39, 3-(3,4-dihydroxy-phenyl)-(S)-2-{[3-trans-(3,4-dihydroxy-phenyl)-acryloyl]-methyl-amino}-propionic acid propyl ester] were 10 to 25 µM, 9.7 µM, 14.1 ± 1.2 days and 5.7 ± 1.2.
For `O=C(/C=C/c1ccc(O)c(O)c1)N[C@@H](Cc1ccc(O)c(O)c1)C(=O)O` [Example 9, 3-(3,4-dihydroxy-phenyl)-(S)-2-[3-trans-(3,4-dihydroxy-phenyl)-acryloylamino]-propionic acid], in that order: 25 to 50 µM, 18.2 µM, 14.8 ± 0.9 days and 7.2 ± 1.2.
For `O=C(O)[C@H](Cc1ccc(O)c(O)c1)NC(=S)/C=C/c1ccc(O)c(O)c1` [Example 23, 3-(3,4-dihydroxy-phenyl)-(S)-2-[3-trans-(3,4-dihydroxy-phenyl)-thioacryloylamino]-propionic acid], in that order: 25 to 50 µM, 16 µM, 13.2 ± 0.8 days and 6.7 ± 0.8.
Turning to `CCCOC(=O)[C@H](Cc1ccc(O)c(O)c1)NC(=S)/C=C/c1ccc(O)c(O)c1` [Example 25, 3-(3,4-dihydroxy-phenyl)-(S)-2-[3-trans-(3,4-dihydroxy-phenyl)-thioacryloylamino]-propionic acid propyl ester], the IC50 at GST-fused lck SH2 domain is 10 to 25 µM; in the test on IL-2 promoter, 9.7 µM. In addition, the “Survival time of skin graft tissue” value in the test with skin allograft rejection came out at 14.8 ± 0.6 days. The Arthritis index in test [1] is 5.7 ± 0.4.
For `O=C(/C=C/c1ccc(O)c(O)c1)NCCc1ccc(O)c(O)c1` [Example 43, 3-(3,4-dihydroxy-phenyl)-N-[2-trans-(3,4-dihydroxy-phenyl)-ethyl]-acrylamide], in that order: 25 to 50 µM, 21.2 µM, 13.1 ± 0.9 days and 6.0 ± 1.9.
Taken in the same sequence, the figures for `NC(=O)[C@H](Cc1ccc(O)c(O)c1)NC(=O)/C=C/c1ccc(O)c(O)c1` [Example 14] were 10 to 25 µM, 6.9 µM, 15.3 ± 0.9 days and 5.3 ± 1.2.
Take `O=C(/C=C/c1ccc(O)c(O)c1)N[C@@H](Cc1ccc(O)cc1)C(=O)O` [Example 48, (S)-2-[trans-3-(3,4-dihydroxy-phenyl)-acryloylamino]-3-(4-hydroxy-phenyl)-propionic acid]: the figures for the IC50 at GST-fused lck SH2 domain and with IL-2 promoter were 25 to 50 µM and 22.3 µM, respectively. The “Survival time of skin graft tissue” value in the test with skin allograft rejection was 12 ± 1.6 days. For the same molecule, in test [1], the Arthritis index amounted to 7.1 ± 0.4.
For `CC(C)(C)OC(=O)[C@H](Cc1ccc(O)c(O)c1)NC(=O)/C=C/c1ccc(O)c(O)c1` [Example 13, 3-(3,4-dihydroxy-phenyl)-(S)-2-[3-trans-(3,4-dihydroxy-phenyl)-acryloylamino]-propionic acid tert-butyl ester], in that order: 25 to 50 µM, 7.2 µM, 14.5 ± 0.6 days and 6.9 ± 1.1.
For `COC(=O)C(Cc1ccc(O)c(O)c1)NC(=O)NCc1ccc(O)c(O)c1` (stereo not shown) [Example 49, 2-[3-(3,4-dihydroxy-benzyl)-ureido]-3-(3,4-dihydroxy-phenyl)-propionic acid methyl ester], in that order: 10 to 25 µM, 20.4 µM, 13 ± 1.5 days and 5.1 ± 0.9.
In the case of `NC(=O)[C@@H](Cc1ccc(O)c(O)c1)OC(=O)/C=C/c1ccc(O)c(O)c1` [Example 57, (R)-3-(3,4-Dihydroxy-phenyl)-acrylic acid 2-(3,4-dihydroxy-phenyl)-1-carbamoyl ethyl ester], the IC50 on GST-fused lck SH2 domain is 25 to 50 µM; in the test with IL-2 promoter, 5.2 µM. Moreover, the “Survival time of skin graft tissue” value in the test with skin allograft rejection is reported as 13.1 ± 0.7 days. For the same molecule, in test [1], the Arthritis index is 4.5 ± 1.2.
For `COC(=O)C(Cc1ccc(O)c(O)c1)NC(=O)Cc1ccc(O)c(O)c1` (stereo not shown) [Example 50, 3-(3,4-dihydroxy-phenyl)-2-[2-(3,4-dihydroxy-phenyl)-acetylamino]-propionic acid methyl ester], in that order: below 10 µM, 18.6 µM, 12.8 ± 0.9 days and 4.8 ± 1.1.

Values taken from patent US20040082664A1, “Derivatives of hydroxyphenyl, a method for preparing thereof and their pharmaceutical composition” (priority 2002, published 2004).
